Experimental data from US5589568A (priority 1994, dated 1996).
Where two headings read alike, the source gives them in different places. Where a SMILES comes first, the peptide text is derived from it. Where no end group is shown, it is not given here. The star is where a group is joined. Dodecyl = CCCCCCCCCCCC*

Legend:
Gi = assay: steady state GTPase activity of Gi in phospholipid vesicles; format: biochemical, rabbit; settings: 30 min at 30° C.; for Turnover number Gi 10 μg/ml: 10 μg/ml amine; for Turnover number Gi 100 μg/ml: 100 μg/ml amine;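 for all read-outs here: Steady-state GTP hydrolysis by Gi measured in a detergent-free buffer containing 1.1 mM MgSO4 plus the specified guanine nucleotide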
Method: (§1) G proteins were reconstituted into phospholipid vesicles composed of dioleoyl-PC/bovine brain PS/1-palmitoyl,2-oleoyl-PE (3:4:3) as reported previously by Higashijima et al., 1988, incorporated herein by reference.
The concentration of free Mg^2+ in assay medium that contains 5 mM EDTA and no added Mg^2+ is estimated to be 0.1-0.2 nM according to Brandt et al., 1988 and 1983.

Go = biological target: T1, Go (Bos taurus, UniProt P08239); assay: steady state GTPase activity of Go in phospholipid vesicles; format: biochemical, bovine; settings: for Turnover number Go 10 μg/ml: 10 μg/ml amine, PE/PC/PS vesicles; for Turnover number Go 10 μg/ml / Turnover number Go 100 μg/ml: 15 min at 20° C.; for Turnover number Go 100 μg/ml: 100 μg/ml amine
T1 construct: proteins were extracted from bovine cerebral cortical membranes; from tissue; host or cells: bovine brain (cerebral cortical membranes)
Text: as §1

Gs = Gs (Homo sapiens, UniProt P63092); assay: steady state GTPase activity of Gs; format: biochemical; settings: read-out: Gs af. (apparent affinity, estimated by EC50 of GTPase activity)
Method: Methods for the assay of steady state GTP hydrolysis and GTPγS binding have been described previously by Higashijima, 1987, and Ferguson, 1986, and incorporated herein by reference. Unless noted otherwise, assays of steady state GTP hydrolysis and of the binding and dissociation of guanine nucleotides were carried out in the buffer described previously, but without detergent and with 1.1 mM MgSO4 and the nucleotide specified in the text. When necessary, the concentration of free Mg^2+ was adjusted using EDTA buffers as described previously by Higashijima, 1987, and incorporated herein by reference.
The data set forth in the following tables represent data generated by the inventors employing the steady state GTP hydrolysis, expressed as molar turnover numbers, are described herein under the "Assay" section of the Experimental Procedures in Example 1. The data has been classified according to the criteria outlined below and the effects of each peptide and modified variant on Go, Gi, and Gs have been tabulated. Table III below sets forth data generated for various mastoparan analogues designed by the inventors, in comparison with the various naturally-occurring mastoparans (e.g., MP, MP-A and MP-T). Table IV sets forth similar data generated for various receptor-based peptides designed by the inventors based on a consideration of various G-protein linked receptors.
Apparent affinity (af.) and apparent efficacy (ef.) were estimated by EC50 and maximum turnover number of GTPase activity.

[1] = Table VI, receptor-based peptides

Chain of Gs (P63092 whole entry): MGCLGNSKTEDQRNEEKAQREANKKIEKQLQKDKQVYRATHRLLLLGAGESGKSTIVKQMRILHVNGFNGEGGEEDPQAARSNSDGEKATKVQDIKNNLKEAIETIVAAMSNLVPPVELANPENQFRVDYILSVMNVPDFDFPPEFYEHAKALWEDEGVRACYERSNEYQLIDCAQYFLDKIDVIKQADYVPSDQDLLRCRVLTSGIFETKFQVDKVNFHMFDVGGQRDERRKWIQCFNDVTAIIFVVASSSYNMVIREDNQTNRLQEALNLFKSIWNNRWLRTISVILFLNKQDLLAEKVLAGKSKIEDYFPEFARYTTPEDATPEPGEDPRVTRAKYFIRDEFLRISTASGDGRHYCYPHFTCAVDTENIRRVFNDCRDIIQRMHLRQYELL
T1 sequence (P08239 2-354 limits assumed): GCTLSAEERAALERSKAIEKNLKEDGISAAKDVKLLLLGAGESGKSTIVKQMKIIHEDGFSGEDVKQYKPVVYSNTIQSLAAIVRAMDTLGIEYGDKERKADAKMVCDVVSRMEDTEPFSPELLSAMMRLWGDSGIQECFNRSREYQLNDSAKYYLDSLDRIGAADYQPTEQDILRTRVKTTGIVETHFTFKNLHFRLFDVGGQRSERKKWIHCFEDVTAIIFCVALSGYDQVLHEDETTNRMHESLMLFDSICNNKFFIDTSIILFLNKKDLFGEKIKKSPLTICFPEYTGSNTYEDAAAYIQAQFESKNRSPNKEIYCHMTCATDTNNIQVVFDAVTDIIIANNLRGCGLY
T1 sequence (P62871 2-340 partner limits assumed): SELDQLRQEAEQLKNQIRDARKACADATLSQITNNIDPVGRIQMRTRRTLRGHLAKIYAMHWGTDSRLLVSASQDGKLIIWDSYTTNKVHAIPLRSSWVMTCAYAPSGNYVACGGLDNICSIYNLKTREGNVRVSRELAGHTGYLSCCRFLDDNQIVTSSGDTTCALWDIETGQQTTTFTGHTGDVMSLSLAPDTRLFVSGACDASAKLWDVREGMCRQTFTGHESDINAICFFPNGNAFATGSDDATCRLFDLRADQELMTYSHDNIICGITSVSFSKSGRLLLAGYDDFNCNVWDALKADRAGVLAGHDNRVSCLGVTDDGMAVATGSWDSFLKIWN
T1 sequence (P63212 2-68 partner limits assumed): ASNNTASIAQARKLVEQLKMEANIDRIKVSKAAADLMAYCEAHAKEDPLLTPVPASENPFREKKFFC

| Compound | EC50 (Gs; [1]) [µM] | EC50 (Go) [µM] | EC50 (Gs; Table IV) [µM] | other results |
| --- | --- | --- | --- | --- |
| CCCCCCCCCCCCCC[N+](C)(C)Cc1ccccc1.[Cl-] [BAC (C14), reference compound] | – | – | – | Turnover number Gi 10 μg/ml (Gi): 0.04 min⁻¹; Turnover number Gi 100 μg/ml (Gi): < 0.01 min⁻¹; Turnover number Go 10 μg/ml (Go): 0.9 min⁻¹; Turnover number Go 100 μg/ml (Go): 0.2 min⁻¹ |
| CCCCCCCCCCCCCCCC[N+](C)(C)Cc1ccccc1.[Cl-] [BAC (C16 ), reference compound] | – | – | – | Turnover number Gi 10 μg/ml (Gi): 0.04 min⁻¹; Turnover number Gi 100 μg/ml (Gi): < 0.01 min⁻¹; Turnover number Go 10 μg/ml (Go): 1.4 min⁻¹; Turnover number Go 100 μg/ml (Go): 0.08 min⁻¹ |
| CCCCCCCCCCCCCCCCCC[N+](C)(C)Cc1ccccc1.[Cl-] [BAC (C18 ), reference compound] | – | – | – | Turnover number Gi 10 μg/ml (Gi): 0.03 min⁻¹; Turnover number Gi 100 μg/ml (Gi): < 0.01 min⁻¹; Turnover number Go 10 μg/ml (Go): 1.1 min⁻¹; Turnover number Go 100 μg/ml (Go): 0.3 min⁻¹ |
| CCCC[N+](CCCC)(CCCC)Cc1ccccc1.[Cl-] [BzBu3 NCl, reference compound] | – | – | – | Turnover number Gi 10 μg/ml (Gi): 0.04 min⁻¹; Turnover number Gi 100 μg/ml (Gi): 0.04 min⁻¹; Turnover number Go 10 μg/ml (Go): 0.07 min⁻¹; Turnover number Go 100 μg/ml (Go): 0.07 min⁻¹ |
| CCCCCCCCCCCC[N+](C)(C)C.[Cl-] [C12 Me3 NCl, reference compound] | – | – | – | Turnover number Gi 10 μg/ml (Gi): 0.04 min⁻¹; Turnover number Gi 100 μg/ml (Gi): 0.04 min⁻¹; Turnover number Go 10 μg/ml (Go): 0.1 min⁻¹; Turnover number Go 100 μg/ml (Go): 0.5 min⁻¹ |
| CCCCCCCCCCCCSC[C@H](NC(=O)[C@@H](NC(=O)[C@@H](NC(=O)CNC(=O)[C@H](CC(C)C)NC(=O)[C@@H](NC(=O)[C@H](CCCCN)NC(=O)[C@H](CC(C)C)NC(=O)[C@H](C)NC(=O)[C@H](CCCCN)NC(=O)[C@H](Cc1c[nH]cn1)NC(=O)[C@H](CCC(=O)O)NC(=O)[C@@H](N)CCCNC(=N)N)[C@@H](C)O)[C@@H](C)CC)[C@@H](C)CC)C(N)=O [C12-ER40] (H-REHKALKTLGIIC(Dodecyl)-NH2) | 3 to 10 | 3 to 10 | – | – |
| CC[C@H](C)[C@H](N)C(=O)N[C@@H](CC(N)=O)C(=O)N[C@@H](Cc1ccc(O)cc1)C(=O)N[C@@H](CCCCN)C(=O)N[C@@H](C)C(=O)N[C@@H](CC(C)C)C(=O)N[C@@H](C)C(=O)N[C@@H](C)C(=O)N[C@@H](CC(C)C)C(=O)N[C@@H](C)C(=O)N[C@@H](CCCCN)C(=O)N[C@@H](CCCCN)C(=O)N[C@H](C(=O)N[C@@H](CC(C)C)C(N)=O)[C@@H](C)CC [ER13] | – | 3 to 10 | 3 to 10 | – |
| CC[C@H](C)[C@H](N)C(=O)N[C@@H](CC(N)=O)C(=O)N[C@@H](CC(C)C)C(=O)N[C@@H](CCCCN)C(=O)N[C@@H](C)C(=O)N[C@@H](CC(C)C)C(=O)N[C@@H](C)C(=O)N[C@@H](C)C(=O)N[C@@H](CC(C)C)C(=O)N[C@@H](C)C(=O)N[C@@H](CCCCN)C(=O)N[C@@H](CCCCN)C(=O)N[C@@H](CC(C)C)C(=O)N[C@@H](CC(C)C)C(N)=O [MAS03] | – | 3 to 10 | 10 to 30 | – |
| CC[C@H](C)[C@H](N)C(=O)N[C@@H](CC(N)=O)C(=O)N[C@@H](CC(C)C)C(=O)N[C@@H](CCCCN)C(=O)N[C@@H](C)C(=O)N[C@@H](CC(C)C)C(=O)N[C@@H](C)C(=O)N[C@@H](C)C(=O)N[C@@H](CC(C)C)C(=O)N[C@@H](C)C(=O)N[C@@H](CCCCN)C(=O)N[C@@H](CCCCN)C(=O)N[C@@H](C)C(=O)N[C@@H](CC(C)C)C(N)=O [MAS05, INLKALAALAKKAL] | – | 10 to 30 | 10 to 30 | – |
| CC[C@H](C)[C@H](N)C(=O)N[C@@H](CC(N)=O)C(=O)N[C@@H](CC(C)C)C(=O)N[C@@H](CCCCN)C(=O)N[C@@H](C)C(=O)N[C@@H](CC(C)C)C(=O)N[C@@H](C)C(=O)N[C@@H](C)C(=O)N[C@@H](CC(C)C)C(=O)N[C@@H](C)C(=O)N[C@@H](CCCCN)C(=O)N[C@@H](CCCCN)C(=O)N[C@@H](CCCCN)C(=O)N[C@@H](CC(C)C)C(N)=O [MAS06] | – | 30 to 100 | 30 to 100 | – |
| CISRASKSRIKKDKKEPVAIL-NH2 [ER44] | 30 to 100 | < 3 | – | – |
| CISRASKSRIKKDKKIL-NH2 [ER45] | 3 to 10 | < 3 | – | – |
| CIYRETENRARELAALQGSET-NH2 [ER32] | > 100 | > 100 | – | – |
| CIYRETENRARELAALQGSETIL-NH2 [ER33] | > 100 | > 100 | – | – |
| CLLKALAALAKALL-NH2 [ER30] | – | 3 to 10 | 3 to 10 | – |
| CNYKALAALAKALL-NH2 [ER16] | – | 3 to 10 | 10 to 30 | – |
| CPLSYRAKRTPRRAALM-NH2 [ER38] | 30 to 100 | 3 to 10 | – | – |

| Compound | EC50 (Gs; [1]) [µM] | EC50 (Go) [µM] | EC50 (Gs; Table IV) [µM] | other results |
| --- | --- | --- | --- | --- |
| CVFQVAKRQLQKIDKVL-NH2 [ER36] | 30 to 100 | 10 to 30 | – | – |
| CVYIVAKRTTKNLEAGVMKEIL-NH2 [ER34] | 30 to 100 | 30 to 100 | – | – |
| CVYIVAKRTTKNLEIL-NH2 [ER35] | > 100 | 10 to 30 | – | – |
| CVYREAKEQIRKIDR-NH2 [ER43] | > 100 | > 100 | – | – |
| CVYREAKEQIRKIDRVL-NH2 [ER18] | > 100 | 30 to 100 | – | – |
| CVYREAKEQIRKIL-NH2 [ER19] | > 100 | > 100 | – | – |
| CVYVVAKRESRGLKIL-NH2 [ER47] | > 100 | 30 to 100 | – | – |
| CVYVVAKRESRGLKSGLKTDIL-NH2 [ER46] | > 100 | 30 to 100 | – | – |
| IKWKAILDAVKKVL-NH2 [MP-A, reference compound] | – | 3 to 10 | 3 to 10 | – |
| ILLKALAALAKALL-NH2 [ER21] | – | 3 to 10 | 3 to 10 | – |
| INAKALAALAKKLL-NH2 [MAS21] | – | 10 to 30 | 10 to 30 | – |
| INFKALAALAKKLL-NH2 [MAS22] | – | 10 to 30 | 3 to 10 | – |
| INLAALAALAKALL-NH2 [ER4] | – | 3 to 10 | 3 to 10 | – |
| INLAALAALAKKLL-NH2 [Mas19] | – | 3 to 10 | 3 to 10 | – |
| INLKAAAALAKKLL-NH2 [MAS16] | – | 10 to 30 | 3 to 10 | – |
| INLKAFAALAKKLL-NH2 [MAS23] | – | 10 to 30 | 3 to 10 | – |
